# Patent US20090082372A1, “Arylmethylene Substituted N-Acyl-Beta-Amino Alcohols” (priority 2007, published 2009)
# Molecular target: T1, human FSH receptor (Homo sapiens, UniProt P23945)
# T1 construct: expressed in transfected cells; host or cells: CHO cells (hFSHR clone 16)
# T1 sequence (P23945 18-695): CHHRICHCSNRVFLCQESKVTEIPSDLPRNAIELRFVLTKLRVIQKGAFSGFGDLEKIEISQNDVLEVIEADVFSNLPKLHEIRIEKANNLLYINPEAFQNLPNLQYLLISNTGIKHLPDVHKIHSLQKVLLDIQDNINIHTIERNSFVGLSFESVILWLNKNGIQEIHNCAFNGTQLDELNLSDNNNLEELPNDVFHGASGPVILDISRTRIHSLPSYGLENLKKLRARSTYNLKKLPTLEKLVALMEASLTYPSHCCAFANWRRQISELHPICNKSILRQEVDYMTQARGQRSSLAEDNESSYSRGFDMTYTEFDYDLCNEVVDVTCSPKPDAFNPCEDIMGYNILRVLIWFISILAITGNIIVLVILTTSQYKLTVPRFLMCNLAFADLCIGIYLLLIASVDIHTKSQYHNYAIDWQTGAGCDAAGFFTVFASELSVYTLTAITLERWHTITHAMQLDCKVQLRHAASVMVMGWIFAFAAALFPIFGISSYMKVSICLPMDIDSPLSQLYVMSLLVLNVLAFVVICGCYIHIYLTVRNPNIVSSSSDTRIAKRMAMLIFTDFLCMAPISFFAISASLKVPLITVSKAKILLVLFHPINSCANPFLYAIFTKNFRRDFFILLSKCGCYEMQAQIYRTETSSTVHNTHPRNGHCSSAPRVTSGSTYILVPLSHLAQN
# Test: HTRF assay for measuring cAMP in cells (FSH antagonism)
# Type: cell-based
# Details: hFSHR clone 16 cells (CHO cells stably transfected with the human FSH receptor); in the presence of 1e-9 mol/l hFSH; 37° C. for 2 h; read-out: IC50 (FSH-antagonistic effect in the HTRF assay)
# Procedure: HTRF Assay for Measuring cAMP in Cells
# The method is based on a competitive immunoassay between native cAMP, which has been produced by the cells, and cAMP which is labelled with XL665. The tracer binding was visualized by a monoclonal antibody, anti-cAMP labelled with cryptate [HTRF=homogeneous time-resolved fluorescence].
# The specific signal is inversely proportional to the cAMP concentration of the samples employed. The 665 nm/620 nm fluorescence ratio was evaluated.
# The following material was used: 96-well plates for the tissue culture, 96-well plates with black edge and black base (e.g. Fluotrac 600 from Greiner), 96-well plates for the substance dilutions of polypropylene and cAMP Femtomolar (4000 wells Kit, CIS Bio International #62AM1PEC).
# The following reagents were used: BSA (bovine serum albumin) Fraction V protease-free, IBMX (3-isobutyl-1-methylxanthine), hFSH (human follicle stimulating hormone), Triton X-100 analytical grade, potassium fluoride analytical grade, G 418 (Geneticin) and Accutase.
# Buffer 1 (washing and testing buffer) contained PBS, 1 mM CaCl2, 1 mM MgCl2, 0.2% glucose; 0.1% BSA, 1 mM IBMX. Buffer 2 (2× lysis buffer) contained 1% Triton X-100 in PBS (without CaCl2 and MgCl2). Buffer 3 (assay buffer) contained 50 mM potassium phosphate buffer (pH 7.0); 800 mM potassium fluoride; 0.2% BSA (always added fresh).
# On day 1, the cells were seeded in 96-well plates (3×10^4 cells per well hFSHR clone 16 cells (CHO cells stably transfected with the human FSH receptor in 150 μl of medium).
# The next day, test substance dilutions were made up. For this purpose, all the substances were diluted in ice-cold buffer 1 (with or without hFSH), and the substance dilutions were placed on ice until applied to the cells.
# The cell supernatant was then aspirated off, and the cells were washed 2× with 200 μl of buffer 1. The cells were treated with 60 μl of the appropriate substance concentrations at 37° C. for 2 h. The cells were then lysed with 60 μl of buffer 2 (put onto the supernatant) (on a plate shaker at RT for 30 min).
# The test conjugates (XL-665 and anti-cAMP cryptate) were diluted in buffer 3 in accordance with the manufacturers' information. The actual mixture for measurement was pipetted into a black 96-well plate (in each case 15 μl of the cell lysate diluted with 35 μl of buffer 1; firstly 25 μl of XL-665 conjugate were pipetted and, after 10 min, 25 μl of the anti-cAMP cryptate were added). This is followed by incubation at RT for 90 minutes. The measurement was carried out in a PheraStar (BMG).
# Dose-effect curve (hFSH) for the human receptor: 1e-8, 3e-9, 1e-9, 3e-10, 1e-10, 3e-11, 1e-11, 3e-12 mol/l.
# The test substances were employed in suitable dilutions in the absence (test for agonism) and in the presence of 1e-9 mol/l hFSH.
# The values of the well ratio were averaged and then entered directly in SigmaPlot versus the concentrations. The maximum and minimum values were determined for each plate, and half the difference is to be regarded as IC50.
row,SMILES,IC50 [µM]
1,"CNC(=O)c1ccc(C#Cc2ccc(OC(F)(F)F)c(C(=O)N[C@@H](CO)Cc3n[nH]c4cccc(F)c34)c2)cc1 (stereo in doubt) [Example 16, N-[2-hydroxy-1-(4-fluoro-1H-indazol-3-ylmethyl)-ethyl]-2-trifluoromethoxy-5-[(4-methylaminocarbonyl-phenyl)-ethynyl]-benzamide]",9
2,"CNC(=O)c1cc(F)cc(-c2ccc(OC(C)C)c(C(=O)NC(CO)Cc3c[nH]c4ncccc34)c2)c1 (centres unmarked) [Example 1, 5′-Fluoro-4-isopropoxy-biphenyl-3,3′-dicarboxylic acid 3-{[2-hydroxy-1-(1H-pyrrolo[2,3-b]pyridin-3-ylmethyl)-ethyl]-amide}3′-methylamide]",1.5
3,"COc1ccccc1C#Cc1ccc(OC(C)C)c(C(=O)NC(CO)Cc2c[nH]c3ncccc23)c1 (centres unmarked) [Example 3, N-[1-Hydroxymethyl-2-(1H-pyrrolo[2,3-b]pyridin-3-yl)-ethyl]-2-isopropoxy-5-(2-methoxy-phenylethynyl)-benzamide]",4
4,"CNC(=O)c1ccc(-c2cc3c(c(C(=O)NC(CO)Cc4c[nH]c5ncccc45)c2)OC(C)(C)C=C3)cc1Cl (centres unmarked) [Example 5, 6-(3-Chloro-4-methylcarbamoyl-phenyl)-2,2-dimethyl-2H-chromene-8-carboxylic acid [2-hydroxy-1-(1H-pyrrolo[2,3-b]pyridin-3-ylmethyl)-ethyl]-amide]",0.065
5,"COc1ccc2nc(-c3cc(OC)c(OC)c(OC)c3)cc(C(=O)N[C@@H](CO)Cc3csc4ccccc34)c2c1 [Example 6, 6-Methoxy-2-(3,4,5-trimethoxy-phenyl)-quinoline-4-carboxylic acid ((R)-2-benzo[b]-thiophen-3-yl-1-hydroxy-methyl-ethyl)-amide]",6
6,"COc1ccc2nc(-c3cc(OC)c(OC)c(OC)c3)cc(C(=O)N[C@@H](CO)Cc3ccc4ccccc4c3)c2c1 [Example 9, 6-Methoxy-2-(3,4,5-trimethoxy-phenyl)-quinoline-4-carboxylic acid ((R)-2-hydroxy-1-naphthalen-2-ylmethyl-ethyl)-amide]",8
7,"COc1ccc2nc(-c3cc(OC)c(OC)c(OC)c3)cc(C(=O)NC(CO)Cc3ccc4ccccc4c3)c2c1 (centres unmarked) [Example 12, 6-Methoxy-2-(3,4,5-trimethoxy-phenyl)-quinoline-4-carboxylic acid (2-hydroxy-1-naphthalen-2-ylmethyl-ethyl)-amide]",10
8,"CNC(=O)c1ccc(-c2ccc(OC(F)(F)F)c(C(=O)N[C@@H](CO)Cc3n[nH]c4c(F)cccc34)c2)cc1Cl [Example 14, 3′-Chloro-4-trifluoromethoxy-biphenyl-3,4′-dicarboxylic acid 3-{[2-hydroxy-1-(7-fluoro-1H-indazol-3-ylmethyl)-ethyl]-amide}4′-methylamide]",5
9,"COc1ccc2nc(-c3ccc(OC)c(F)c3)nc(C(=O)NC(CO)Cc3c[nH]c4cccnc34)c2c1 (centres unmarked) [Example 21, 2-(3-Fluoro-4-methoxy-phenyl)-6-methoxy-quinazoline-4-carboxylic acid [2-hydroxy-1-(1H-pyrrolo[3,2-b]pyridin-3-ylmethyl)-ethyl]-amide]",5
10,"COc1ccccc1C#Cc1ccc(OC(C)C)c(C(=O)NC(CO)Cc2c[nH]c3cccnc23)c1 (centres unmarked) [Example 22, N-[1-Hydroxymethyl-2-(1H-pyrrolo[3,2-b]pyridin-3-yl)-ethyl]-2-isopropoxy-5-(2-methoxy-phenylethynyl)-benzamide]",0.2
11,"CNC(=O)c1cc(F)cc(-c2ccc(OC(C)C)c(C(=O)NC(CO)Cc3cc4ncccc4[nH]3)c2)c1 (centres unmarked) [Example 24, 5′-Fluoro-4-isopropoxy-biphenyl-3,3′-dicarboxylic acid 3-{[1-hydroxymethyl-2-(1H-pyrrolo[3,2-b]pyridin-2-yl)-ethyl]-amide}3′-methyl amide]",0.07
12,"COc1ccc(-c2cc3c(c(C(=O)NC(CO)Cc4c[nH]c5cccnc45)c2)OCCCC3)cc1OC (centres unmarked) [Example 26, 7-(3,4-Dimethoxy-phenyl)-2,3,4,5-tetrahydro-benzo[b]oxepine-9-carboxylic acid [1-hydroxymethyl-2-(1H-pyrrolo[3,2-b]pyridin-3-yl)-ethyl]-amide]",1
13,"CNC(=O)c1ccc(-c2ccc(OC(C)C)c(C(=O)NC(CO)Cc3c[nH]c4cnccc34)c2)cc1Cl (centres unmarked) [Example 39, 3′-Chloro-4-isopropoxy-biphenyl-3,4′-dicarboxylic acid 3-{[2-hydroxy-1-(1H-pyrrolo[2,3-c]pyridin-3-ylmethyl)-ethyl]-amide}4′-methylamide]",6.5
14,"COc1ccccc1C#Cc1ccc(OC(C)C)c(C(=O)NC(CO)Cc2c[nH]c3cnccc23)c1 (centres unmarked) [Example 42, N-[2-Hydroxy-1-(1H-pyrrolo[2,3-c]pyridin-3-ylmethyl)-ethyl]-2-isopropoxy-5-(2-methoxy-phenylethynyl)-benzamide]",5
